Laboratory results reported in patent US20240180895A1, “USE OF KAPPA OPIOID RECEPTOR AGONISTS TO TREAT CARDIOVASCULAR DISEASE” (Board of Supervisors of Louisiana State University and …, priority 2021, published 2024).

Experiments:
[1] = tested on: conscious Sprague-Dawley rats; assay: Metabolic cage renal excretory studies, oral gavage (Example 3); type: in vivo, rat
Protocol: Animals: Male Sprague-Dawley (SD) rats (Envigo Labs, Indianapolis, IN), 300-350 g, were individually housed under a 12 h light-dark cycle and allowed tap water and standard rodent diet ad libitum. Rats were randomly assigned to experimental groups for all acute and subacute studies. All procedures were approved by the Louisiana State University Health Sciences Center Institutional Animal Care and Use Committee and conducted in accordance with the National Institutes of Health guidelines for the care and use of animals.
Metabolic Cage Renal Excretory Studies: Rats were placed in metabolic cages (model 18cv, Fenco, Cataumet, MA) for 2 hours to allow for acclimation and voiding of residual urine. Following the acclimation period, rats were volume loaded with 20 cc kg^−1 drug or vehicle (isotonic saline) via oral gavage. Urines were collected each hour over a 5-hour period. Following completion of the study rats were returned to their home cages. […] These points are marked on the figures with number of measurements in parentheses.
Experimental Design and Analysis: All results are expressed as mean±SEM. […] Means between groups for total urine output, Na^+ concentration, K^+ concentration, and urine osmolality were compared using a Student's t-test. Statistical significance was characterized as P<0.05. Statistics were carried out using Prism 7.05 software (GraphPad Software, Inc., San Diego, CA) and IBM SPSS Statistics (IBM, Armonk, NY).

[2] = tested on: conscious Sprague-Dawley rats; assay: Acute cardiovascular and renal excretory studies with ICV or IV norBNI pretreatment (Example 4); type: in vivo, rat; conditions: for Total urine output: difelikefalin 10 μg/kg or nalfurafine 5 μg/kg IV, 90 min; for Urine osmolality / Urine potassium concentration [K+] / Urine sodium concentration [Na+]: total 90-min urine
Protocol: Male Sprague-Dawley rats (Envigo Labs, Indianapolis, IN) were individually housed, allowed tap water and standard rodent diet ad libitum, and kept under a 12-hour light-dark cycle. Rats used in these experiments weighed between 300 and 350 grams and were randomly assigned to experimental groups. All procedures were conducted in accordance with the National Institutes of Health guidelines for the care and use of animals and approved by the Louisiana State University Health Sciences Center Institutional Animal Care and Use Committee.
Aseptic technique was adhered to for all surgeries and detailed surgical methods were followed as previously described.^14 Briefly, 3-5 days before experimentation, rats requiring central ventricle access for administration of drug/vehicle into the brain were anesthetized with ketamine and xylazine and a stainless-steel cannula was stereotaxically implanted into the right lateral cerebral ventricle.^14
On the morning of the experiment, rats were anesthetized and maintained with inhaled 2% isoflurane, and polyethylene catheters were surgically placed into the left femoral artery, left femoral vein, and urinary bladder.^15.16 Following surgery, rats were placed in an elevated restrainer for recovery and collection of urine from an indwelling bladder catheter.^15 After completion of experimental protocols, rats were anesthetized with isoflurane and decapitated.
During stabilization of cardiovascular and renal excretory parameters, rats received an isotonic saline infusion (55 μl/min), which lasted throughout the duration of the experiment. To record mean arterial pressure (MAP) and heart rate (HR), arterial catheters were connected to a pressure transducer (MLT0670, ADInstruments, Sydney, Australia), which was connected to Powerlab 8/30 (ADInstruments) and visualized using LabChart software (v8.1.5; ADInstruments). After one hour of recovery from surgery, rats were pretreated with the KOR antagonist norBNI or isotonic saline vehicle through either an intracerebroventricular (ICV) catheter or intravenous (IV) catheter. […] Next, drug or vehicle (isotonic saline) was injected into the femoral vein and urine samples were collected every 10 minutes during a 90-minute experimental period. The following drug concentrations were used: nalfurafine 5 μg/kg, difelikefalin 10 μg/kg, norBNI 30 mg/kg (IV), norBNI 1 μg/5 μL (ICV). All groups are n=6. Urine sodium and potassium were measured using a flame photometer (model 943; Instrumentation Laboratories, Lexington, MA). Urine volume was measured gravimetrically, and urine osmolality was measured using a vapor pressure osmometer (model 5600; WESCOR, Logan, UT).
All results are expressed as mean±SEM. For determining statistically different changes at time points within a treatment group, means were compared to the control value using 2-way ANOVA with repeated measures and a post hoc Dunnett test following confirmation of a significant F value. For statistically different changes at individual time points between treatment groups, mean values were compared using 2-way ANOVA with repeated measures and a post hoc Sidak test following confirmation of a significant/value. For means between groups for total urine output, urine sodium concentration, urine potassium concentration, and urine osmolality, a Student/test was used. Statistical significance was characterized as P<0.05 and statistics were performed on Prism 7.05 software (GraphPad Software, Inc, San Diego, CA).

[3] = tested on: spontaneously hypertensive rats; assay: Chronic subcutaneous infusion of nalfurafine, radiotelemetry blood pressure (FIG. 19); type: in vivo, rat
Protocol: Male spontaneously hypertensive rats (SHR; Charles Rivers) were single housed and allowed tap water and standard rodent diet ad libitum. All procedures and experiments were conducted in accordance with the National Institutes of Health guidelines for the care and use of animals.
Radiotelemetry transmitters (Data Sciences International, St. Paul, MN) were implanted into SHR for chronic recording of blood pressure and heart rate and followed as previously published.^56 Briefly, rats were anesthetized and maintained on 2% isoflurane and the right femoral artery was surgically exposed. The transmitter catheter was inserted into the femoral artery and advanced until reaching the abdominal aorta. The site exposing the femoral artery was sutured and rats were allowed 1 week of recovery. Telemetry data was analyzed using Ponemah software (DSI, St. Paul, MN).
In a separate cohort, spontaneously hypertensive rats were administered a subcutaneous nalfurafine infusion (0.3 mg/day) or vehicle (isotonic saline) using an osmotic pump (2ML4; Alzet) for 4 weeks. For the insertion of the osmotic pumps, rats were anesthetized and maintained under 2% isoflurane, a small incision was made at the nape, and the osmotic pump was inserted between the scapulae. The incision was sutured, and rats were returned to their home cages. Blood pressure was recorded throughout the entirety of the experiment and the 20:00-22:00 time frame was plotted.
All results are expressed as mean±SEM. Statistically different changes for both experimental protocols were determined using 2-way ANOVA with repeated measures and were considered statistically different following a significant/value for an interaction between experimental group and time. Statistical significance was determined as P<0.05, and statistics were performed on Prism 7.05 software (GraphPad Software, Inc, San Diego, CA).

hemodialysis patients = conditions: nearly 4000 hemodialysis patients (Kozono, Yoshitani, et al., 2018); cited from earlier work
[4] = oral gavage, cumulative 5-hour urine, same doses, mean±SEM
[5] = ICV norBNI (1 μg/5 μL) pretreatment
[6] = IV norBNI (30 mg/kg) pretreatment
[7] = subcutaneous infusion 0.3 mg/day, 30 days

CN(C(=O)/C=C/c1ccoc1)[C@@H]1CC[C@@]2(O)[C@H]3Cc4ccc(O)c5c4[C@@]2(CCN3CC2CC2)[C@H]1O5 [nalfurafine, Nalfurafine]
Time of peak diuresis ([1]; after oral gavage 150 μg kg−1): 2 h | Potassium concentration [K+] in cumulative urine [1, 4]: 14.55±1.46 μeq ml^−1 | Sodium concentration [Na+] in cumulative urine [1, 4]: 16.92±1.45 μeq ml^−1 | Total urine output ([1]; oral gavage, cumulative urine of 5-hour protocol, nalfurafine 150 μg kg−1, furosemide 50 mg kg−1, HCTZ 5 mg kg−1, amiloride 5 mg kg−1, mean±SEM, n=6): 14.55 ± 0.57 mL | Effect on MAP [2, 5]: prevented the decrease in MAP | Total urine output [2, 5]: 4.72 ± 0.41 mL | Urine osmolality [2, 5]: 358.5 ± 30.6 mmol/kg | Urine potassium concentration [K+] [2, 5]: 12.77±3.99 μeq/mL | Urine sodium concentration [Na+] [2, 5]: 82.33±7.74 μeq/mL | Total urine output ([2]; ICV vehicle (5 μL) pretreatment): 8.37 ± 0.40 mL | Effect on HR ([2]; ICV vehicle pretreatment): slight but statistically significant increase in HR | MAP peak Δ ([2]; ICV vehicle pretreatment, peak at 60 min (difelikefalin), 50 min (nalfurafine)): −6 mmHg | Urine osmolality ([2]; ICV vehicle pretreatment): 164 ± 8.09 mmol/kg | Urine potassium concentration [K+] ([2]; ICV vehicle pretreatment): 8.19±2.15 μeq/mL | Urine sodium concentration [Na+] ([2]; ICV vehicle pretreatment): 37.78±5.35 μeq/mL | Effect on HR [2, 6]: did not produce any change in HR | MAP peak Δ ([2]; IV norBNI (30 mg/kg) pretreatment, 80-minute peak for difelikefalin): abolished | Total urine output [2, 6]: 5.03 ± 0.39 mL | Urine osmolality [2, 6]: 439.2 ± 24.02 mmol/kg | Urine potassium concentration [K+] [2, 6]: 10.94±1.09 μeq/mL | Urine sodium concentration [Na+] [2, 6]: 109.1±7.85 μeq/mL | Total urine output ([2]; IV vehicle (2 cc/kg) pretreatment): 9.37 ± 0.42 mL | Effect on HR ([2]; IV vehicle pretreatment): did not produce any change in HR | Urine osmolality ([2]; IV vehicle pretreatment): 148.7 ± 4.4 mmol/kg | Urine potassium concentration [K+] ([2]; IV vehicle pretreatment): 5.49±0.68 μeq/mL | Urine sodium concentration [Na+] ([2]; IV vehicle pretreatment): 32.56±3.05 μeq/mL | Decrease in systolic, diastolic, and mean arterial pressure ([3]; 1 day of subcutaneous nalfurafine infusion 0.3 mg/day, 20:00-22:00 time frame): ~20 mmHg | Heart rate vs vehicle [3, 7]: significantly lower heart rate than the vehicle treated group on day 9, day 16-22, and day 25-30 | Systolic, diastolic, mean arterial pressure and heart rate over time [3, 7]: did not demonstrate an increase in these parameters | Dysphoric adverse effects (hemodialysis patients): did not cause the typical dysphoric adverse effects
